Measurements as given in patent publication US10647713B2 (Nimbus Lakshmi, Inc., priority 2016, dated 2020).

Target: human TYK2 (JH2domain-pseudokinase) (Homo sapiens (Human), UniProt P29597)
Assay: TYK2 JH2 Domain Binding Assay (KINOMEscan, DiscoveRx)
Settings: 11-point dilution, duplicate
How it was run: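 TYK2 JH2 (G556–D888)–NFkB DBD fusion, DNA-tagged, from HEK293 extracts (<0.1 nM) competed against immobilised biotinylated ligand for 1 h at room temperature, 0.9% DMSO. Bead-retained kinase quantified by qPCR; Kd from 11-point 3-fold series (top 30,000 nM, duplicate), Hill fit with slope −1.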

Sequence of human TYK2 (JH2domain-pseudokinase) (P29597 556-888): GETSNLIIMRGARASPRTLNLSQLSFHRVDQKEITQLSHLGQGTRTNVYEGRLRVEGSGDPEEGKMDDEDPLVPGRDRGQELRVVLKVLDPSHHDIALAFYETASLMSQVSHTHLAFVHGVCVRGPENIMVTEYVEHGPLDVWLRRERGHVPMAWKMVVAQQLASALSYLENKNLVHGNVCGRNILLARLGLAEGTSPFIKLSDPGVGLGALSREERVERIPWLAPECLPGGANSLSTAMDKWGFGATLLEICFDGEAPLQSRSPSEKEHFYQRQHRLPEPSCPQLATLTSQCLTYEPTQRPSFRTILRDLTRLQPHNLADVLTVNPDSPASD

SMILES: CN(c1cc(-c2cnn(C)c2)ccc1Nc1cc(NC(=O)[C@H]2C[C@H]2F)nc2[nH]c(C(F)F)nc12)S(C)(=O)=O [I-236, (1R, 2R)—N-(2-(difluoromethyl)-7-((4-(1-methyl-1H-pyrazol-4-yl)-2-(N-methylmethylsulfonamido)phenyl)amino)-3H-imidazo[4,5-b]pyridin-5-yl)-2-fluorocyclopropane-1-carboxamide]
- Kd: 100 to 500 pM

SMILES: Cn1ccc(-c2ccc(Nc3cc(NC(=O)[C@@H]4CC4(F)F)nc4[nH]c(C(F)F)nc34)c(S(C)(=O)=O)c2)n1 [I-237, (S)—N-(2-(difluoromethyl)-7-((4-(1-methyl-1H-pyrazol-3-yl)-2-(methylsulfonyl)phenyl)amino)-3H-imidazo[4,5-b]pyridin-5-yl)-2,2-difluorocyclopropane-1-carboxamide]
- Kd: 500 to 1000 pM

SMILES: Cn1ccc(-c2ccc(Nc3cc(NC(=O)[C@H]4CC4(F)F)nc4[nH]c(C(F)F)nc34)c(S(C)(=O)=O)c2)n1 [I-238, (R)—N-(2-(difluoromethyl)-7-((4-(1-methyl-1H-pyrazol-3-yl)-2-(methylsulfonyl)phenyl)amino)-3H-imidazo[4,5-b]pyridin-5-yl)-2,2-difluorocyclopropane-1-carboxamide]
- Kd: 1000 to 10000 pM

SMILES: Cc1nc2c(Nc3ccc(-c4ccn(C)n4)cc3S(C)(=O)=O)cc(NC(=O)[C@@H]3CC3(F)F)nc2[nH]1 [I-239, (S)-2,2-difluoro-N-(2-methyl-7-((4-(1-methyl-1H-pyrazol-3-yl)-2-(methylsulfonyl)phenyl)amino)-3H-imidazo[4,5-b]pyridin-5-yl)cyclopropane-1-carboxamide]
- Kd: 100 to 500 pM

SMILES: Cc1nc2c(Nc3ccc(-c4ccn(C)n4)cc3S(C)(=O)=O)cc(NC(=O)[C@H]3CC3(F)F)nc2[nH]1 [I-240, (R)-2,2-difluoro-N-(2-methyl-7-((4-(1-methyl-1H-pyrazol-3-yl)-2-(methylsulfonyl)phenyl)amino)-3H-imidazo[4,5-b]pyridin-5-yl)cyclopropane-1-carboxamide]
- Kd: 1000 to 10000 pM

SMILES: Cc1nc2c(Nc3ccc(-c4nn(C)cc4C)cc3S(C)(=O)=O)cc(NC(=O)C3CC3)nc2[nH]1 [I-241, N-(7-((4-(1,4-dimethyl-1H-pyrazol-3-yl)-2-(methylsulfonyl)phenyl)amino)-2-methyl-3H-imidazo[4,5-b]pyridin-5-yl)cyclopropanecarboxamide]
- Kd: < 100 pM

SMILES: CP(C)(=O)c1ccccc1Nc1cc(NC(=O)C2CC2)nc2[nH]c(C(F)F)nc12 [I-242, N-(2-(difluoromethyl)-7-((2-(dimethylphosphoryl)phenyl)amino)-3H-imidazo[4,5-b]pyridin-5-yl)cyclopropanecarboxamide]
- Kd: 500 to 1000 pM

SMILES: Cc1nc2c(Nc3ccccc3P(C)(C)=O)cc(NC(=O)C3CC3)nc2[nH]1 [I-243, N-(7-((2-(dimethylphosphoryl)phenyl)amino)-2-methyl-3H-imidazo[4,5-b]pyridin-5-yl)cyclopropanecarboxamide]
- Kd: > 10000 pM

SMILES: Cn1cnc(-c2ccc(Nc3cc(NC(=O)[C@H]4CC4(F)F)nc4[nH]c(C(F)F)nc34)c(S(C)(=O)=O)c2)c1 [I-244, (R)—N-(2-(difluoromethyl)-7-((4-(1-methyl-1H-imidazol-4-yl)-2-(methylsulfonyl)phenyl)amino)-3H-imidazo[4,5-b]pyridin-5-yl)-2,2-difluorocyclopropane-1-carboxamide]
- Kd: 500 to 1000 pM

SMILES: Cn1cnc(-c2ccc(Nc3cc(NC(=O)[C@@H]4CC4(F)F)nc4[nH]c(C(F)F)nc34)c(S(C)(=O)=O)c2)c1 [I-245, (S)—N-(2-(difluoromethyl)-7-((4-(1-methyl-1H-imidazol-4-yl)-2-(methylsulfonyl)phenyl)amino)-3H-imidazo[4,5-b]pyridin-5-yl)-2,2-difluorocyclopropane-1-carboxamide]
- Kd: 1000 to 10000 pM

SMILES: Cc1cn(C)nc1-c1ccc(Nc2cc(NC(=O)C3CC3)nc3[nH]c(C(F)F)nc23)c(S(C)(=O)=O)c1 [I-246, N-(2-(difluoromethyl)-7-((4-(1,4-dimethyl-1H-pyrazol-3-yl)-2-(methylsulfonyl)phenyl)amino)-3H-imidazo[4,5-b]pyridin-5-yl)cyclopropanecarboxamide]
- Kd: < 100 pM

SMILES: CS(=O)(=O)c1cc([C@@H]2CCCCO2)ccc1Nc1cc(NC(=O)C2CC2)nc2[nH]c(C(F)F)nc12 [I-247, (S)—N-(2-(difluoromethyl)-7-((2-(methylsulfonyl)-4-(tetrahydro-2H-pyran-2-yl)phenyl)amino)-3H-imidazo[4,5-b]pyridin-5-yl)cyclopropanecarboxamide]
- Kd: 100 to 500 pM

SMILES: CS(=O)(=O)c1cc([C@H]2CCCCO2)ccc1Nc1cc(NC(=O)C2CC2)nc2[nH]c(C(F)F)nc12 [I-248, (R)—N-(2-(difluoromethyl)-7-((2-(methylsulfonyl)-4-(tetrahydro-2H-pyran-2-yl)phenyl)amino)-3H-imidazo[4,5-b]pyridin-5-yl)cyclopropanecarboxamide]
- Kd: < 100 pM

SMILES: Cc1nc2c(Nc3ccccc3N(C(F)F)S(C)(=O)=O)cc(Nc3cccc(C#N)n3)nc2[nH]1 [I-249, N-(2-((5-((6-cyanopyridin-2-yl)amino)-2-methyl-3H-imidazo[4,5-b]pyridin-7-yl)amino)phenyl)-N-(difluoromethyl)methanesulfonamide]
- Kd: 1000 to 10000 pM

SMILES: Cc1nc2c(Nc3ccc(-c4cn(C)cn4)cc3S(C)(=O)=O)cc(NC(=O)[C@@H]3C[C@@H]3F)nc2[nH]1 [I-250, (1S,2S)-2-fluoro-N-(2-methyl-7-((4-(1-methyl-1H-imidazol-4-yl)-2-(methylsulfonyl)phenyl)amino)-3H-imidazo[4,5-b]pyridin-5-yl)cyclopropane-1-carboxamide]
- Kd: < 100 pM

SMILES: Cc1nc2c(Nc3ccc(-c4cn(C)cn4)cc3S(C)(=O)=O)cc(NC(=O)[C@H]3C[C@H]3F)nc2[nH]1 [I-251, (1R,2R)-2-fluoro-N-(2-methyl-7-((4-(1-methyl-1H-imidazol-4-yl)-2-(methylsulfonyl)phenyl)amino)-3H-imidazo[4,5-b]pyridin-5-yl)cyclopropane-1-carboxamide]
- Kd: 100 to 500 pM

SMILES: CS(=O)(=O)c1cc([C@H]2CCCOC2)ccc1Nc1cc(NC(=O)C2CC2)nc2[nH]c(C(F)F)nc12 [I-252, (R)—N-(2-(difluoromethyl)-7-((2-(methylsulfonyl)-4-(tetrahydro-2H-pyran-3-yl)phenyl)amino)-3H-imidazo[4,5-b]pyridin-5-yl)cyclopropanecarboxamide]
- Kd: 1000 to 10000 pM

SMILES: CS(=O)(=O)c1cc([C@@H]2CCCOC2)ccc1Nc1cc(NC(=O)C2CC2)nc2[nH]c(C(F)F)nc12 [I-253, (S)—N-(2-(difluoromethyl)-7-((2-(methylsulfonyl)-4-(tetrahydro-2H-pyran-3-yl)phenyl)amino)-3H-imidazo[4,5-b]pyridin-5-yl)cyclopropanecarboxamide]
- Kd: 100 to 500 pM

SMILES: Cc1nc2c(Nc3ccc([C@@H]4CCCOC4)cc3S(C)(=O)=O)cc(NC(=O)C3CC3)nc2[nH]1 [I-255, (S)—N-(2-methyl-7-((2-(methylsulfonyl)-4-(tetrahydro-2H-pyran-3-yl)phenyl)amino)-3H-imidazo[4,5-b]pyridin-5-yl)cyclopropanecarboxamide]
- Kd: 100 to 500 pM

SMILES: Cc1nc2c(Nc3ccc([C@H]4CCCCO4)cc3S(C)(=O)=O)cc(NC(=O)[C@H]3CC3(F)F)nc2[nH]1 [I-256, (R)-2,2-difluoro-N-(2-methyl-7-((2-(methylsulfonyl)-4-((R)-tetrahydro-2H-pyran-2-yl)phenyl)amino)-3H-imidazo[4,5-b]pyridin-5-yl)cyclopropane-1-carboxamide]
- Kd: 500 to 1000 pM

SMILES: Cc1nc2c(Nc3ccc([C@H]4CCCCO4)cc3S(C)(=O)=O)cc(NC(=O)[C@@H]3CC3(F)F)nc2[nH]1 [I-257, (S)-2,2-difluoro-N-(2-methyl-7-((2-(methylsulfonyl)-4-((R)-tetrahydro-2H-pyran-2-yl)phenyl)amino)-3H-imidazo[4,5-b]pyridin-5-yl)cyclopropane-1-carboxamide]
- Kd: 1000 to 10000 pM

SMILES: CS(=O)(=O)c1cc(C(F)(F)F)ccc1Nc1cc(NC(=O)C2CC2)nc2[nH]c(C(F)F)nc12 [I-258, N-(2-(difluoromethyl)-7-((2-(methylsulfonyl)-4-(trifluoromethyl)phenyl)amino)-3H-imidazo[4,5-b]pyridin-5-yl)cyclopropanecarboxamide]
- Kd: 1000 to 10000 pM

SMILES: Cc1nc2c(Nc3ccc(C(F)(F)F)cc3S(C)(=O)=O)cc(NC(=O)C3CC3)nc2[nH]1 [I-259, N-(2-methyl-7-((2-(methylsulfonyl)-4-(trifluoromethyl)phenyl)amino)-3H-imidazo[4,5-b]pyridin-5-yl)cyclopropanecarboxamide]
- Kd: 1000 to 10000 pM

SMILES: Cc1nc2c(Nc3ccc(-c4cncn4C)cc3S(C)(=O)=O)cc(NC(=O)[C@@H]3C[C@@H]3F)nc2[nH]1 [I-260, (1S,2S)-2-fluoro-N-(2-methyl-7-((4-(1-methyl-1H-imidazol-5-yl)-2-(methylsulfonyl)phenyl)amino)-3H-imidazo[4,5-b]pyridin-5-yl)cyclopropane-1-carboxamide]
- Kd: < 100 pM

SMILES: Cc1nc2c(Nc3ccc(-c4cncn4C)cc3S(C)(=O)=O)cc(NC(=O)[C@H]3C[C@H]3F)nc2[nH]1 [I-261, (1R,2R)-2-fluoro-N-(2-methyl-7-((4-(1-methyl-1H-imidazol-5-yl)-2-(methylsulfonyl)phenyl)amino)-3H-imidazo[4,5-b]pyridin-5-yl)cyclopropane-1-carboxamide]
- Kd: 100 to 500 pM

SMILES: Cc1nc2c(Nc3ccc(-c4nn(C)cc4C)cc3S(C)(=O)=O)cc(NC(=O)[C@@H]3C[C@@H]3F)nc2[nH]1 [I-262, (1S,2S)—N-(7-((4-(1,4-dimethyl-1H-pyrazol-3-yl)-2-(methylsulfonyl)phenyl)amino)-2-methyl-3H-imidazo[4,5-b]pyridin-5-yl)-2-fluorocyclopropane-1-carboxamide]
- Kd: 100 to 500 pM

SMILES: Cc1nc2c(Nc3ccc(-c4nn(C)cc4C)cc3S(C)(=O)=O)cc(NC(=O)[C@H]3C[C@H]3F)nc2[nH]1 [I-263, (1R,2R)—N-(7-((4-(1,4-dimethyl-1H-pyrazol-3-yl)-2-(methylsulfonyl)phenyl)amino)-2-methyl-3H-imidazo[4,5-b]pyridin-5-yl)-2-fluorocyclopropane-1-carboxamide]
- Kd: < 100 pM
